Results taken from patent publication US11963961B2, “Combination therapy comprising an ACC inhibitor” (Gilead Sciences, Inc., priority 2017, dated 2024).

What was measured:
Type in all cases: in vivo, human
[1] = tested on: non-cirrhotic subjects with NASH; assay: Phase 2 randomized placebo-controlled trial of Compound 1 in NASH: imaging, liver biochemistry, serum fibrosis markers, tolerability; settings: for Liver stiffness by FibroScan, median relative change from baseline: W12, n = 40; for Hyaluronic acid, median relative change from baseline / PIII-NP, median relative change from baseline / TIMP-1, median relative change from baseline: W12, serum
Description: (§1) Methods: In this double-blind, placebo-controlled trial, 126 non-cirrhotic subjects with NASH diagnosed noninvasively by MRI proton density fat fraction (PDFF) ≥8% and liver stiffness ≥2.5 kPa by MR elastography (MRE), or historical liver biopsy consistent with NASH and stage 1 to 3 fibrosis, were randomized 2:2:1 to receive Compound 1 20 mg, Compound 1 5 mg, or placebo orally QD for 12 weeks ([…]). Centrally-read MRI-PDFF and MRE, and FibroScan and serum markers of fibrosis were measured at baseline and […]. In some subjects, liver stiffness and hepatic fat content by Controlled Attenuation Parameter (CAP) were assessed using transient elastography (FibroScan®; Echosens, Paris, France) at baseline (i.e. week 0) and week 12.

[2] = tested on: non-cirrhotic subjects with NASH; assay: Phase 2 trial of Compound 1 in NASH: standard lipid tests and NMR LipoProfile lipoproteins in fasting serum; settings: for HDL-P (total HDL particles), median / HDL-C, median / VLDL-P (total VLDL particles), median / LDL-C, median / TG, median / TC, median / LDL-P (total LDL particles), median: Compound 1 20 mg daily; for HDL-P (total HDL particles), median: BL 30; for HDL-C, median: BL 42; for VLDL-P (total VLDL particles), median: BL 53; for LDL-C, median: BL 99; for TG, median: BL 160; for TC, median: BL 179; for LDL-P (total LDL particles), median: BL 1397
Description: Methods: In this double-blind, placebo-controlled trial, 126 non-cirrhotic subjects with NASH diagnosed noninvasively by MRI proton density fat fraction (PDFF) ≥8% and liver stiffness ≥2.5 kPa by MR elastography (MRE), or historical liver biopsy consistent with NASH and stage 1 to 3 fibrosis, were randomized 2:2:1 to receive Compound 1 20 mg, Compound 1 5 mg, or placebo orally QD for 12 weeks (W12). Centrally-read MRI-PDFF and MRE, and FibroScan and serum markers of fibrosis were measured at baseline and W12. In some subjects, liver stiffness and hepatic fat content by Controlled Attenuation Parameter (CAP) were assessed using transient elastography (FibroScan®; Echosens, Paris, France) at baseline (i.e. week 0) and week 12.
In addition to standard lipid tests (serum triglycerides (“TG”), total cholesterol (“TC”), low density lipoprotein cholesterol (“LDL-C”), and high density lipoprotein cholesterol (“HDL-C”), lipoproteins also were measured by nuclear magnetic resonance spectroscopy (NMR LipoProfile®, LabCorp) in fasting serum samples at baseline (“BL”), week 1 (W1), week 4 (W4), and W12. Changes from BL in Compound 1-treated subjects were evaluated using Wilcoxon sign-rank tests and comparisons vs placebo using Wilcoxon rank-sum tests (all with Bonferroni adjustment).

[3] = tested on: non-cirrhotic subjects with NASH; assay: Phase 2 trial of Compound 1 in NASH: acylcarnitine species by UHPLC-MS
Description: as §1, with “12. Acylcarnitine species measurements were performed with Ultrahigh Performance Liquid Chromatography-Tandem Mass Spectroscopy (UHPLC-MS; Waters Acquity UHPLC, Waters Corporation, Milford, MA USA) and Hybrid Quadrupole-Orbitrap mass spectometer (Q-Exactive Thermo Fischer Scientific, Waltham, MA, USA) platforms in electrospray ionisation-positive and -negative modes as known.” for “12.”

[4] = Compound 1 5 mg orally QD, W12, n = 47
[5] = Compound 1 20 mg orally QD, W12, n = 46
[6] = Compound 1 20 mg, 5 mg, placebo, W12
[7] = Compound 1 5 mg, PDFF Nonresponders
[8] = Compound 1 5 mg, PDFF Responders
[9] = Compound 1 20 mg, PDFF Nonresponders
[10] = Compound 1 20 mg, PDFF Responders

COc1ccccc1[C@H](Cn1c(=O)n(C(C)(C)C(=O)O)c(=O)c2c(C)c(-c3ncco3)sc21)OC1CCOCC1 [Compound 1, (R)-2-(1-(2-(2-methoxyphenyl)-2-((tetrahydro-2H-pyran-4-yl)oxy)ethyl)-5-methyl-6-(oxazol-2-yl)-2,4-dioxo-1,2-dihydrothieno[2,3-d]pyrimidin-3(4H)-yl)-2-methylpropanoic acid]
ALT, median relative change from baseline ([1]; Compound 1 5 mg orally QD, W12): −9.8% | ≥30% reduction in MRI-PDFF, % of subjects ([1]; Compound 1 5 mg orally QD, W12 (11/47)): 23% | ≥15% reduction in MRE-stiffness, % of subjects ([1]; Compound 1 5 mg orally QD, W12 (19/47)): 40% | Liver stiffness by FibroScan, median relative change from baseline ([1]; Compound 1 5 mg orally QD): −8.4% | MRE-stiffness, median relative change from baseline [1, 4]: −9.6% | MRI-PDFF, median relative change from baseline [1, 4]: −13.0% | Hyaluronic acid, median relative change from baseline ([1]; Compound 1 5 mg orally QD): −0.7% | PIII-NP, median relative change from baseline ([1]; Compound 1 5 mg orally QD): −7.0% | TIMP-1, median relative change from baseline ([1]; Compound 1 5 mg orally QD): −2.9% | MRI-PDFF, differences from placebo ([1]; Compound 1 5 mg, W12): not statistically significant | Median alkaline phosphatase, change ([1]; Compound 1 5 mg, W12): unchanged | Hepatic steatosis by CAP (Controlled Attenuation Parameter) ([1]; Compound 1 20 mg and 5 mg, week 12, differences not statistically significant): Dose-dependent reductions | Tolerability ([1]; Compound 1 20 mg or 5 mg QD, 12 weeks): generally well-tolerated | ALT, median relative change from baseline ([1]; Compound 1 20 mg orally QD, W12): −20.5% | ≥15% reduction in MRE-stiffness, % of subjects ([1]; Compound 1 20 mg orally QD, W12 (15/46)): 33% | ≥30% reduction in MRI-PDFF, % of subjects ([1]; Compound 1 20 mg orally QD, W12 (22/46)): 48% | Liver stiffness by FibroScan, median relative change from baseline ([1]; Compound 1 20 mg orally QD): −11.1% | MRE-stiffness, median relative change from baseline [1, 5]: −5.5% | MRI-PDFF, median relative change from baseline [1, 5]: −28.9% | Hyaluronic acid, median relative change from baseline ([1]; Compound 1 20 mg orally QD): −6.9% | PIII-NP, median relative change from baseline ([1]; Compound 1 20 mg orally QD): −13.9% | TIMP-1, median relative change from baseline ([1]; Compound 1 20 mg orally QD): −7.9% | Liver stiffness by FibroScan, M probe, change from baseline to week 12 between treatment groups ([1]; Compound 1 20 mg, 5 mg, placebo): no differences | Changes in liver stiffness by MRE [1, 6]: did not differ between groups | Changes in other liver biochemistry tests and the composite ELF score among the treatment groups [1, 6]: not significantly different | MRI-PDFF compared with placebo ([1]; Compound 1 20 mg, W12): statistically and clinically significant decrease | Serum levels of TIMP-1 ([1]; Compound 1 20 mg, W12, p=0.022 vs placebo): significant reductions | Median alkaline phosphatase, increase ([1]; Compound 1 20 mg, W12, p≤0.001 vs placebo): 9% | Asymptomatic Grade 3 or 4 TG elevations (>500 mg/dL), number of subjects ([2]; Compound 1 5 mg): 9 subjects | Median relative change in triglycerides (TG) ([2]; Compound 1 5 mg, W12): +13% | Asymptomatic Grade 3 or 4 TG elevations (>500 mg/dL), number of subjects ([2]; Compound 1 20 mg): 7 subjects | HDL-P (total HDL particles), median ([2]; W1): 30 µmol/L | HDL-C, median ([2]; W1): 39 mg/dL | VLDL-P (total VLDL particles), median ([2]; W1): 72 nmol/L | LDL-C, median ([2]; W1): 102 mg/dL | TG, median ([2]; W1): 191 mg/dL | TC, median ([2]; W1): 192 mg/dL | LDL-P (total LDL particles), median ([2]; W1): 1260 nM | HDL-P (total HDL particles), median ([2]; W4): 30 µmol/L | HDL-C, median ([2]; W4): 39 mg/dL | VLDL-P (total VLDL particles), median ([2]; W4): 52 nmol/L | LDL-C, median ([2]; W4): 96 mg/dL | TG, median ([2]; W4): 188 mg/dL | TC, median ([2]; W4): 184 mg/dL | LDL-P (total LDL particles), median ([2]; W4): 1360 nM | HDL-P (total HDL particles), median ([2]; W12): 30 µmol/L | HDL-C, median ([2]; W12): 42 mg/dL | VLDL-P (total VLDL particles), median ([2]; W12): 52 nmol/L | LDL-C, median ([2]; W12): 99 mg/dL | TG, median ([2]; W12): 177 mg/dL | TC, median ([2]; W12): 182 mg/dL | LDL-P (total LDL particles), median ([2]; W12): 1230 nM | Changes in glucose, insulin, or HbA1c compared to placebo ([2]; Compound 1 20 mg or 5 mg): no significant changes | Median relative change in triglycerides (TG) ([2]; Compound 1 20 mg, W12): +11% | Changes from baseline in HDL-C, TC, and LDL-C ([2]; Compound 1-treated subjects, W12): not significant | Median TG increase ([2]; Compound 1-treated subjects, W12, IQR (−6, 72), p=0.14 vs placebo): 14 mg/dL | Changes in total HDL or total LDL particles ([2]; subjects on Compound 1): No significant changes | Time course of TG elevations ([2]; subjects on Compound 1): peaked at W1 and declined thereafter | Acylcarnitine species compared according to PDFF response ([3]; Compound 1 5 mg): minimal changes | 3-hydroxybutyrylcarnitine (1), median % change from baseline [3, 7]: −4.08% | 5-dodecenoylcarnitine (C12:1), median % change from baseline [3, 7]: 15.43% | laurylcarnitine (C12), median % change from baseline [3, 7]: 15.23% | linolenoylcarnitine (C18:3), median % change from baseline [3, 7]: −23.55% | myristoleoylcarnitine (C14:1), median % change from baseline [3, 7]: 25.74% | myristoylcarnitine (C14), median % change from baseline [3, 7]: 12.05% | octadecenedioylcarnitine (C18:1-DC), median % change from baseline [3, 7]: 0% | palmitoleoylcarnitine (C16:1), median % change from baseline [3, 7]: 18.13% | 3-hydroxybutyrylcarnitine (1), median % change from baseline [3, 8]: −18.06% | 5-dodecenoylcarnitine (C12:1), median % change from baseline [3, 8]: 2.08% | laurylcarnitine (C12), median % change from baseline [3, 8]: 1.99% | linolenoylcarnitine (C18:3), median % change from baseline [3, 8]: 6.49% | myristoleoylcarnitine (C14:1), median % change from baseline [3, 8]: −4.71% | myristoylcarnitine (C14), median % change from baseline [3, 8]: −7.50% | octadecenedioylcarnitine (C18:1-DC), median % change from baseline [3, 8]: 33.24% | palmitoleoylcarnitine (C16:1), median % change from baseline [3, 8]: −0.06% | 3-hydroxybutyrylcarnitine (1), median % change from baseline [3, 9]: 34.27% | 5-dodecenoylcarnitine (C12:1), median % change from baseline [3, 9]: 58.85% | laurylcarnitine (C12), median % change from baseline [3, 9]: 36.72% | linolenoylcarnitine (C18:3), median % change from baseline [3, 9]: 20.43% | myristoleoylcarnitine (C14:1), median % change from baseline [3, 9]: 22.42% | myristoylcarnitine (C14), median % change from baseline [3, 9]: 23.92% | octadecenedioylcarnitine (C18:1-DC), median % change from baseline [3, 9]: 36.38% | palmitoleoylcarnitine (C16:1), median % change from baseline [3, 9]: 31.63% | 3-hydroxybutyrylcarnitine (1), median % change from baseline [3, 10]: −13.99% | 5-dodecenoylcarnitine (C12:1), median % change from baseline [3, 10]: −12.39% | laurylcarnitine (C12), median % change from baseline [3, 10]: −3.23% | linolenoylcarnitine (C18:3), median % change from baseline [3, 10]: −17.84% | myristoleoylcarnitine (C14:1), median % change from baseline [3, 10]: −7.22% | myristoylcarnitine (C14), median % change from baseline [3, 10]: −19.99% | octadecenedioylcarnitine (C18:1-DC), median % change from baseline [3, 10]: −11.01% | palmitoleoylcarnitine (C16:1), median % change from baseline [3, 10]: −9.82% | Multiple long and medium-chain acylcarnitine species, PDFF response versus no PDFF response ([3]; Compound 1 20 mg, before administration of the next daily dose): significantly reduced
